The values below come from patent US7431958B2, “Use of fraction from Cinnamomum zeylanicum for preserving food” (Council of Scientific & Industrial Research, priority 2003, dated 2008).

Test [1] can be described thus: antioxidant activity using DPPH method. The source says:
The water extract obtained in the above methods was screened for antioxidant activity using 1,1-diphenyl-2-picrylhydrazyl (DPPH) [J. Agricultural and Food Chemistry, 50, 81-86, 2002].

Test [2] is described as follows: antioxidant activity using β-carotene-linoleate model system. The following applies: β-carotene-linoleate method. An excerpt:
The water extract obtained, was screened for antioxidant activity using β-carotene-linoleate model systems.

Regarding `COc1ccc(O)c(C(C)(C)C)c1` [BHA, butylated hydroxyanisole], the antioxidant activity in test [1] (25 ppm) stood at 71%; in test [1] (50 ppm), 94%; in test [2] (100 ppm), 81%; in test [2] (200 ppm), 89%.
